# From patent publication US8512725B2, “Method, material and system for controlled release of anti-microbial agents” (Bacstop Corporation Pty Ltd, priority 2004, dated 2013)
# What was measured:
# Assay in all cases: Survival of bacteria inoculated into silver-treated water aliquots
# Format in all cases: cell-based
# [1] = tested on: Bacillus cereus NCTC 10320; conditions: initial concentration 5.82
# Procedure: (§1) Several bacterial organisms, E. coli ATCC 11775, Pseudomonas aeruginosa ATCC 27853, and Bacillus cereus NCTC 10320 were inoculated into equal volumes of the abovementioned aliquots to achieve an initial bacterial concentration of approximately 10^6 cells per millilitre. After three predetermined time periods of 5 minutes, 1 hour, and 8 days, aliquots of each solution were withdrawn, and enumeration of surviving organisms was performed. All tests were conducted in duplicate.
# (§2) All results are expressed in log10 units.
# E. coli ATCC 11775 = conditions: initial concentration 5.81
# Procedure: as §1, §2
# [2] = tested on: Pseudomonas aeruginosa ATCC 27853; conditions: initial concentration 5.62
# Procedure: as §1, §2
# [3] = sodium hypochlorite 0.5 ppm, period 5 min
# [4] = sodium hypochlorite 0.5 ppm, period 1 hour
# [5] = sodium hypochlorite 0.5 ppm, period 8 days
smiles,measurement,setting,value
"[Ag] [Silver, silver]","surviving organisms, Bacillus cerus","[1]; silver 50 ppb, period 5 min",4.60 log10 units
same,"surviving organisms, Bacillus cerus","[1]; silver 50 ppb, period 1 hour",2.30 log10 units
same,"surviving organisms, Bacillus cerus","[1]; silver 50 ppb, period 8 days",0 log10 units
same,"surviving organisms, Bacillus cerus","[1]; silver 111 ppb, period 5 min",4.20 log10 units
same,"surviving organisms, Bacillus cerus","[1]; silver 111 ppb, period 1 hour",2.00 log10 units
same,"surviving organisms, Bacillus cerus","[1]; silver 111 ppb, period 8 days",0 log10 units
same,"surviving organisms, Bacillus cerus","[1]; silver 190 ppb, period 5 min",4.28 log10 units
same,"surviving organisms, Bacillus cerus","[1]; silver 190 ppb, period 1 hour",1.93 log10 units
same,"surviving organisms, Bacillus cerus","[1]; silver 190 ppb, period 8 days",0 log10 units
same,"surviving organisms, Bacillus cerus","[1]; silver 373 ppb, period 5 min",4.19 log10 units
same,"surviving organisms, Bacillus cerus","[1]; silver 373 ppb, period 1 hour",0 log10 units
same,"surviving organisms, Bacillus cerus","[1]; silver 373 ppb, period 8 days",0 log10 units
same,"surviving organisms, E. coli","E. coli ATCC 11775; silver 50 ppb, period 5 min",5.81 log10 units
same,"surviving organisms, E. coli","E. coli ATCC 11775; silver 50 ppb, period 1 hour",4.79 log10 units
same,"surviving organisms, E. coli","E. coli ATCC 11775; silver 50 ppb, period 8 days",0 log10 units
same,"surviving organisms, E. coli","E. coli ATCC 11775; silver 111 ppb, period 5 min",5.77 log10 units
same,"surviving organisms, E. coli","E. coli ATCC 11775; silver 111 ppb, period 1 hour",4.48 log10 units
same,"surviving organisms, E. coli","E. coli ATCC 11775; silver 111 ppb, period 8 days",0 log10 units
same,"surviving organisms, E. coli","E. coli ATCC 11775; silver 190 ppb, period 5 min",5.76 log10 units
same,"surviving organisms, E. coli","E. coli ATCC 11775; silver 190 ppb, period 1 hour",3.74 log10 units
same,"surviving organisms, E. coli","E. coli ATCC 11775; silver 190 ppb, period 8 days",0 log10 units
same,"surviving organisms, E. coli","E. coli ATCC 11775; silver 373 ppb, period 5 min",5.79 log10 units
same,"surviving organisms, E. coli","E. coli ATCC 11775; silver 373 ppb, period 1 hour",3.88 log10 units
same,"surviving organisms, E. coli","E. coli ATCC 11775; silver 373 ppb, period 8 days",0 log10 units
same,"surviving organisms, Pseudomonas aeruginosa","[2]; silver 50 ppb, period 5 min",5.61 log10 units
same,"surviving organisms, Pseudomonas aeruginosa","[2]; silver 50 ppb, period 1 hour",5.27 log10 units
same,"surviving organisms, Pseudomonas aeruginosa","[2]; silver 50 ppb, period 8 days",3.23 log10 units
same,"surviving organisms, Pseudomonas aeruginosa","[2]; silver 111 ppb, period 5 min",5.61 log10 units
same,"surviving organisms, Pseudomonas aeruginosa","[2]; silver 111 ppb, period 1 hour",4.98 log10 units
same,"surviving organisms, Pseudomonas aeruginosa","[2]; silver 111 ppb, period 8 days",2.59 log10 units
same,"surviving organisms, Pseudomonas aeruginosa","[2]; silver 190 ppb, period 5 min",5.61 log10 units
same,"surviving organisms, Pseudomonas aeruginosa","[2]; silver 190 ppb, period 1 hour",5.00 log10 units
same,"surviving organisms, Pseudomonas aeruginosa","[2]; silver 190 ppb, period 8 days",1.10 log10 units
same,"surviving organisms, Pseudomonas aeruginosa","[2]; silver 373 ppb, period 5 min",5.62 log10 units
same,"surviving organisms, Pseudomonas aeruginosa","[2]; silver 373 ppb, period 1 hour",5.10 log10 units
same,"surviving organisms, Pseudomonas aeruginosa","[2]; silver 373 ppb, period 8 days",2.00 log10 units
"[Na+].[O-]Cl [NaOCl, sodium hypochlorite, reference compound]","surviving organisms, Bacillus cerus",[1]; [3],4.61 log10 units
same,"surviving organisms, Bacillus cerus",[1]; [4],4.61 log10 units
same,"surviving organisms, Bacillus cerus",[1]; [5],4.90 log10 units
same,"surviving organisms, E. coli",E. coli ATCC 11775; [3],5.82 log10 units
same,"surviving organisms, E. coli",E. coli ATCC 11775; [4],5.81 log10 units
same,"surviving organisms, E. coli",E. coli ATCC 11775; [5],4.48 log10 units
same,"surviving organisms, Pseudomonas aeruginosa",[2]; [3],5.62 log10 units
same,"surviving organisms, Pseudomonas aeruginosa",[2]; [4],5.63 log10 units
same,"surviving organisms, Pseudomonas aeruginosa",[2]; [5],4.98 log10 units
